# Laboratory results published in US20060154984A1, “Therapeutic use of acyl glycerols and the nitrogen- and sulphur- containing analogues thereof” (priority 2003, published 2006).
# Legend:
# LDL = LDL oxidation by copper, conjugated diene formation (OD 234 nm); format: biochemical; settings: 10^−4 M; for LDL oxidation rate (rate of conjugated diene formation): copper alone 3 nmol/min/mg of LDL; for increase in the lag phase: relative to copper alone; for decrease in the maximum amount of conjugated dienes formed: copper alone 496 nmol per mg of LDL
# Experimental: Oxidation of LDL is an important modification which plays a major role in the onset and development of atherosclerosis (Jurgens, Hoff et al. 1987). […] Unless otherwise indicated, all reagents were from Sigma (St Quentin, France).
# LDL were prepared as described by Lebeau et al. (Lebeau, Furman et al. 2000). The solutions of the test compounds were prepared at 10^−2 M in ethanol and diluted in PBS so that the final concentration ranged from 0.1 to 100 μM with a total ethanol concentration of 1% (VN).
# Before oxidation, EDTA was removed from the LDL preparation by dialysis. The oxidation reaction was then carried out at 30° C. by adding 100 μl of 16.6 μM CuSO4 to 800 μl of LDL (125 μg protein/ml) and 100 μl of a test compound solution. The formation of dienes, the species to be followed, was measured by the optical density at 234 nm in the samples treated with the compounds in the presence or absence of copper. Optical density at 234 nm was measured every 10 minutes for 8 hours on a thermostated spectrophotometer (Kontron Uvikon 930). The analyses were carried out in triplicate. A compound was considered to have antioxidant activity when it shifted the lag phase latency relative to the control sample. […] FIG. 4 presents an example of the results obtained with the inventive compounds.
# PPARα = target: T1, PPARα (Homo sapiens, UniProt Q07869); assay: Gal4/PPARα transactivation system in HepG2 cells (luciferase reporter); format: cell-based; settings: HepG2 cells transfected with Gal4/PPARα plasmids, 24 h
# T1 construct: expressed in transfected cells; host or cells: HepG2
# T1 sequence (Q07869 239-466 limits assumed): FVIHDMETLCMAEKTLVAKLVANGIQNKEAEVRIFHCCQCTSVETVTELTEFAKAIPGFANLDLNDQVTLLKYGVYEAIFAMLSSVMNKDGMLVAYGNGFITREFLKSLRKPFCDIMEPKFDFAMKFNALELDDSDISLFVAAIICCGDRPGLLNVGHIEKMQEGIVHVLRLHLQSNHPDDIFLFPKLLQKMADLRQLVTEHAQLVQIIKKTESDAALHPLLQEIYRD
# Experimental: PPAR activation was tested in vitro in RK13 fibroblast cell lines or in a hepatocyte line HepG2 by measuring the transcriptional activity of chimeras composed of the DNA binding domain of the yeast gal4 transcription factor and the ligand binding domain of the different PPARs. The example below is given for HepG2 cells.
# HepG2 cells were from ECACC (Porton Down, UK) and were grown in DMEM medium supplemented with 10% (VN) fetal calf serum, 100 U/ml penicillin (Gibco, Paisley, UK) and 2 mM L-glutamine (Gibco, Paisley, UK). The culture medium was changed every two days. Cells were kept at 37° C. in a humidified 95% air/5% CO2 atmosphere.
# The plasmids pG5TkpGL3, PRL-CMV, pGal4-hPPARα, pGal4-hPPARγ and pGal4-f have been described by Raspe et al. (Raspe, Madsen et al. 1999). The pGal4-mPPARα and pGal4-hPPARβ constructs were obtained by cloning PCR-amplified DNA fragments corresponding to the DEF domains of the mouse PPARα and […] nuclear receptors, respectively, into the pGal4-f vector.
# HepG2 cells were seeded in 24-well culture dishes at 5×10^4 cells/well and transfected for 2 hours with the reporter plasmid pG5TkpGL3 (50 ng/well), the expression vectors pGal4-f, pGal4-mPPARα, pGal4-hPPARα, pGal4-hPPARγ, or pGal4-hPPARβ (100 ng/well) and the transfection efficiency control vector pRL-CMV (1 ng/well) according to the previously described protocol (Raspe, Madsen et al. 1999), then incubated for 36 hours with the test compounds. At the end of the experiment, the cells were lysed (Gibco, Paisley, UK) and luciferase activity was determined with a Dual-Luciferase™ Reporter Assay System kit (Promega, Madison, Wis., USA) according to the supplier's instructions. The protein content of the cell extracts was then measured with the Bio-Rad Protein Assay kit (Bio-Rad, Munich, Germany) as directed by the supplier. […] FIG. 3 gives an example of the results obtained with the inventive compounds.
# FIG. 3: HepG2 cells transfected with Gal4/PPARα plasmids were incubated with different concentrations (5, 15, 50 and 100 μM) of the inventive comopunds (Ex 2a, Ex 4a, Ex 4p, Ex 5a, Ex 7 and Ex 11) for 24 h and with different concentrations of the vehicle (PC) noted 1, 2, 3, 4 as controls for the 5, 15, 50 and 100 μM concentrations of the inventive compounds (according to the 4:1 (m/m) ratio described in example 2 (Method of preparation of the inventive compounds for in vitro studies)). The results are expressed as the induction factor (luminescent signal of treated cells divided by luminescent signal of untreated cells) after the different treatments. […] The induction factors for inventive compound Ex 4p were 35 at 100 μM, 44 at 50 μM, 36 at 15 μM and 24 at 5 μM. The induction factors for compound Ex 5a were 32 at 100 μM, 34 at 50 μM, 15 at 15 μM and 4 at 5 μM. Finally, inventive compound Ex 7 induced a 19-fold induction at 100 μM, 19 at 50 μM, 7 at 15 μM and 1.5 at 5 μM. In contrast, when the cells were incubated with the vehicle (PC liposome), no significant induction was observed.
Compound,melting point,LDL oxidation rate (rate of conjugated diene formation) (LDL),increase in the lag phase (LDL) [%],induction factor (luminescent signal of treated cells divided by luminescent signal of untreated cells) (PPARα; 5 μM) [fold],induction factor (luminescent signal of treated cells divided by luminescent signal of untreated cells) (PPARα; 15 μM) [fold],induction factor (luminescent signal of treated cells divided by luminescent signal of untreated cells) (PPARα; 50 μM) [fold],induction factor (luminescent signal of treated cells divided by luminescent signal of untreated cells) (PPARα; 100 μM) [fold],decrease in the maximum amount of conjugated dienes formed (LDL) [%],lag phase for conjugated diene formation (LDL; copper alone 104 minutes) [min]
CCCCCCCCCCCCCCCC(=S)OC(CN)CN.Cl.Cl,224 °C (dec.),,,,,,,,
"1,2-(dipalmitoyloxy)-3-tetradecylthioacetylaminopropane [Ex 9]",,did not significantly alter,33,,,,,,
"CCCCCCCCCCCCCCSCC(=O)OCC(O)CO (stereo not drawn) [Ex 2a, 1-tetradecylthioacetylglycerol]",,did not significantly alter,67,17,31,41,62,,
"CCCCCCCCCCCCCCCC(=O)OCC(COC(=O)CCCCCCCCCCCCCCC)OC(=O)CSCCCCCCCCCCCCCC [Ex 4g, 1,3-dipalmitoyl-2-tetradecylthioacetylglycerol]",,1.8 nmol/min/mg of LDL,170,,,,,31,282
"CCCCC/C=C\C/C=C\CCCCCCCC(=O)OCC(COC(=O)CCCCCCC/C=C\C/C=C\CCCCC)OC(=O)CSCCCCCCCCCCCCCC [Ex 4h, 1,3-dilinoleoyl-2-tetradecylthioacetylglycerol]",,2.5 nmol/min/mg of LDL,43,,,,,24,
"CCCCCCCCCCCCCCCC(=O)OC(COC(=O)CSCCCCCCCCCCCCCC)COC(=O)CSCCCCCCCCCCCCCC [Ex 4o, 1.3-ditetradecylthioacetyl-2-palmitoyl-glycerol]",,did not significantly alter,37,,,,,,
"CCCCCCCCCCCCCCSCC(=O)OC(COC(C)=O)COC(C)=O [Ex 4p, 1,3-diacetyl-2-tetradecylthioacetylglycerol]",,,,24,36,44,35,,
"CCCCCCCCCCCCCCSCC(=O)NC(CO)CO [Ex 5a, 2-tetradecylthioacetamidopropane-1.3-diol]",,,,4,15,34,32,,
"CCCCCCCCCCCCCCSCC(=O)NCC(O)CO (stereo not drawn) [Ex 7, 3-(tetradecylthioacetylamino)propane-1,2-diol]",,,,1.5,7,19,19,,
